In the NIST ThermoML archive (doi:10.1021/je4007844):
± gives the expanded uncertainty stated by the source.

Settings: Liquid; for viscosity: Concentric cylinders viscometry

CCCCCC[n+]1ccn(C)c1.O=S(=O)([N-]S(=O)(=O)C(F)(F)F)C(F)(F)F
viscosity (293.15 K, 101.33 kPa): 90.06 ± 1.7 mPa·s
mass density (293.15 K, 101.33 kPa, Vibrating tube method): 1376.3 ± 2 kg/m3
viscosity (303.15 K, 101.33 kPa): 56.25 ± 0.97 mPa·s
mass density (303.15 K, 101.33 kPa, Vibrating tube method): 1367.1 ± 2 kg/m3
mass density (312.6 K, 100 kPa, Bellows volumetry): 1358.5 ± 1.8 kg/m3
mass density (312.6 K, 10000 kPa, Bellows volumetry): 1365.7 ± 1.8 kg/m3
mass density (312.6 K, 20000 kPa, Bellows volumetry): 1373 ± 1.8 kg/m3
mass density (312.6 K, 30000 kPa, Bellows volumetry): 1380.1 ± 1.8 kg/m3
mass density (312.6 K, 40000 kPa, Bellows volumetry): 1386.7 ± 1.8 kg/m3
mass density (312.6 K, 50000 kPa, Bellows volumetry): 1392.8 ± 1.8 kg/m3
mass density (312.6 K, 60000 kPa, Bellows volumetry): 1399 ± 1.8 kg/m3
mass density (312.6 K, 70000 kPa, Bellows volumetry): 1404.6 ± 1.8 kg/m3
mass density (312.6 K, 80000 kPa, Bellows volumetry): 1410.2 ± 1.8 kg/m3
mass density (312.6 K, 90000 kPa, Bellows volumetry): 1415.5 ± 1.8 kg/m3
mass density (312.6 K, 100000 kPa, Bellows volumetry): 1420.7 ± 1.8 kg/m3
mass density (312.6 K, 110000 kPa, Bellows volumetry): 1425.8 ± 1.8 kg/m3
mass density (312.6 K, 120000 kPa, Bellows volumetry): 1430.8 ± 1.8 kg/m3
mass density (312.6 K, 130000 kPa, Bellows volumetry): 1435.5 ± 1.8 kg/m3
mass density (312.6 K, 140000 kPa, Bellows volumetry): 1440.1 ± 1.8 kg/m3
mass density (312.6 K, 150000 kPa, Bellows volumetry): 1444.5 ± 1.8 kg/m3
mass density (312.6 K, 160000 kPa, Bellows volumetry): 1448.9 ± 1.8 kg/m3
mass density (312.6 K, 170000 kPa, Bellows volumetry): 1453 ± 1.8 kg/m3
mass density (312.6 K, 180000 kPa, Bellows volumetry): 1457.6 ± 1.8 kg/m3
mass density (312.6 K, 190000 kPa, Bellows volumetry): 1461.6 ± 1.8 kg/m3
mass density (312.6 K, 200000 kPa, Bellows volumetry): 1465.9 ± 1.8 kg/m3
viscosity (313.15 K, 101.33 kPa): 37.44 ± 0.65 mPa·s
mass density (313.15 K, 101.33 kPa, Vibrating tube method): 1358 ± 2 kg/m3
viscosity (323.15 K, 101.33 kPa): 26.25 ± 0.45 mPa·s
mass density (323.15 K, 101.33 kPa, Vibrating tube method): 1348.9 ± 2 kg/m3
mass density (332.4 K, 100 kPa, Bellows volumetry): 1340 ± 1.8 kg/m3
mass density (332.4 K, 10000 kPa, Bellows volumetry): 1348.1 ± 1.8 kg/m3
mass density (332.4 K, 20000 kPa, Bellows volumetry): 1355.9 ± 1.8 kg/m3
mass density (332.4 K, 30000 kPa, Bellows volumetry): 1363.3 ± 1.8 kg/m3
mass density (332.4 K, 40000 kPa, Bellows volumetry): 1370.4 ± 1.8 kg/m3
mass density (332.4 K, 50000 kPa, Bellows volumetry): 1377 ± 1.8 kg/m3
mass density (332.4 K, 60000 kPa, Bellows volumetry): 1383.2 ± 1.8 kg/m3
mass density (332.4 K, 70000 kPa, Bellows volumetry): 1389.3 ± 1.8 kg/m3
mass density (332.4 K, 80000 kPa, Bellows volumetry): 1395.1 ± 1.8 kg/m3
mass density (332.4 K, 90000 kPa, Bellows volumetry): 1400.5 ± 1.8 kg/m3
mass density (332.4 K, 100000 kPa, Bellows volumetry): 1406.3 ± 1.8 kg/m3
mass density (332.4 K, 110000 kPa, Bellows volumetry): 1411.5 ± 1.8 kg/m3
mass density (332.4 K, 120000 kPa, Bellows volumetry): 1416.5 ± 1.8 kg/m3
mass density (332.4 K, 130000 kPa, Bellows volumetry): 1421.3 ± 1.8 kg/m3
mass density (332.4 K, 140000 kPa, Bellows volumetry): 1426.1 ± 1.8 kg/m3
mass density (332.4 K, 150000 kPa, Bellows volumetry): 1430.9 ± 1.8 kg/m3
mass density (332.4 K, 160000 kPa, Bellows volumetry): 1435.4 ± 1.8 kg/m3
mass density (332.4 K, 170000 kPa, Bellows volumetry): 1439.7 ± 1.8 kg/m3
mass density (332.4 K, 180000 kPa, Bellows volumetry): 1444 ± 1.8 kg/m3
mass density (332.4 K, 190000 kPa, Bellows volumetry): 1448.4 ± 1.8 kg/m3
mass density (332.4 K, 200000 kPa, Bellows volumetry): 1452.6 ± 1.8 kg/m3
viscosity (333.15 K, 101.33 kPa): 19.21 ± 0.33 mPa·s
mass density (333.15 K, 101.33 kPa, Vibrating tube method): 1339.9 ± 2 kg/m3
viscosity (343.15 K, 101.33 kPa): 14.55 ± 0.25 mPa·s
mass density (343.15 K, 101.33 kPa, Vibrating tube method): 1331 ± 2 kg/m3
mass density (352.3 K, 100 kPa, Bellows volumetry): 1322.2 ± 1.8 kg/m3
mass density (352.3 K, 10000 kPa, Bellows volumetry): 1330.9 ± 1.8 kg/m3
mass density (352.3 K, 20000 kPa, Bellows volumetry): 1339.3 ± 1.8 kg/m3
mass density (352.3 K, 30000 kPa, Bellows volumetry): 1347.3 ± 1.8 kg/m3
mass density (352.3 K, 40000 kPa, Bellows volumetry): 1354.5 ± 1.8 kg/m3
mass density (352.3 K, 50000 kPa, Bellows volumetry): 1361.5 ± 1.8 kg/m3
mass density (352.3 K, 60000 kPa, Bellows volumetry): 1368.2 ± 1.8 kg/m3
mass density (352.3 K, 70000 kPa, Bellows volumetry): 1374.6 ± 1.8 kg/m3
mass density (352.3 K, 80000 kPa, Bellows volumetry): 1380.6 ± 1.8 kg/m3
mass density (352.3 K, 90000 kPa, Bellows volumetry): 1386.5 ± 1.8 kg/m3
mass density (352.3 K, 100000 kPa, Bellows volumetry): 1392 ± 1.8 kg/m3
mass density (352.3 K, 110000 kPa, Bellows volumetry): 1397.5 ± 1.8 kg/m3
mass density (352.3 K, 120000 kPa, Bellows volumetry): 1402.7 ± 1.8 kg/m3
mass density (352.3 K, 130000 kPa, Bellows volumetry): 1408 ± 1.8 kg/m3
mass density (352.3 K, 140000 kPa, Bellows volumetry): 1412.8 ± 1.8 kg/m3
mass density (352.3 K, 150000 kPa, Bellows volumetry): 1417.6 ± 1.8 kg/m3
mass density (352.3 K, 160000 kPa, Bellows volumetry): 1422.1 ± 1.8 kg/m3
mass density (352.3 K, 170000 kPa, Bellows volumetry): 1426.8 ± 1.8 kg/m3
mass density (352.3 K, 180000 kPa, Bellows volumetry): 1431.4 ± 1.8 kg/m3
mass density (352.3 K, 190000 kPa, Bellows volumetry): 1435.5 ± 1.8 kg/m3
mass density (352.3 K, 200000 kPa, Bellows volumetry): 1439.9 ± 1.8 kg/m3
viscosity (353.15 K, 101.33 kPa): 11.36 ± 0.2 mPa·s
mass density (353.15 K, 101.33 kPa, Vibrating tube method): 1322.2 ± 2 kg/m3
viscosity (363.15 K, 101.33 kPa): 9.091 ± 0.16 mPa·s
mass density (363.15 K, 101.33 kPa, Vibrating tube method): 1313.3 ± 2 kg/m3
mass density (372.5 K, 100 kPa, Bellows volumetry): 1304.4 ± 1.8 kg/m3
mass density (372.5 K, 10000 kPa, Bellows volumetry): 1313.7 ± 1.8 kg/m3
mass density (372.5 K, 20000 kPa, Bellows volumetry): 1322.6 ± 1.8 kg/m3
mass density (372.5 K, 30000 kPa, Bellows volumetry): 1330.9 ± 1.8 kg/m3
mass density (372.5 K, 40000 kPa, Bellows volumetry): 1338.6 ± 1.8 kg/m3
mass density (372.5 K, 50000 kPa, Bellows volumetry): 1346 ± 1.8 kg/m3
mass density (372.5 K, 60000 kPa, Bellows volumetry): 1353 ± 1.8 kg/m3
mass density (372.5 K, 70000 kPa, Bellows volumetry): 1359.6 ± 1.8 kg/m3
mass density (372.5 K, 80000 kPa, Bellows volumetry): 1366 ± 1.8 kg/m3
mass density (372.5 K, 90000 kPa, Bellows volumetry): 1372.1 ± 1.8 kg/m3
mass density (372.5 K, 100000 kPa, Bellows volumetry): 1378 ± 1.8 kg/m3
mass density (372.5 K, 110000 kPa, Bellows volumetry): 1383.7 ± 1.8 kg/m3
mass density (372.5 K, 120000 kPa, Bellows volumetry): 1389.1 ± 1.8 kg/m3
mass density (372.5 K, 130000 kPa, Bellows volumetry): 1394.3 ± 1.8 kg/m3
